Results on one substance are retold here after patent US10286038B2, “Lysosome membrane protein 2 (LIMP-2) based peptides and related uses” (Northwestern University, priority 2016, dated 2019).

In experiment [1] the target is bovine serum albumin (BSA) (Bos taurus, UniProt P02769). The experiment in a line: peptide pulldown of albumin (BSA). It is filed as binding. As to conditions: neutral pH. How it is done: FIG. 6: Characterization of a helical LIMP-2-derived peptide. […] B) In vitro peptide pulldown assay: helix 5 peptides were incubated with recombinant LAMAN and bovine serum albumin (BSA). INPUT and BOUND fractions were loaded onto SDS-PAGE and proteins visualized by coomassie staining (CBB). C) Densitometry of LAMAN and BSA protein bound to peptide, normalized to protein fraction bound to beads only (buffer; n=2-3). D) and E) Activity assay of recombinant (D) GC and (E) LAMAN incubated with different excess molarities (1×-10×) of helix 5 peptide (n=β-5) and LIMP-2 ectodomain (n=4). GC activities were normalized and statistical analyses compared to 0 input of BSA/helix 5 peptide. F) Peptide-pulldown of GC constructs overexpressed in N2a cells with subsequent Western blot analysis (α-hGC) utilizing helix 5 and the 3×D control peptide as a negative binding control. G) Densitometry of GC protein bound to peptides; each construct is normalized to buffer only. H) Live-cell lysosomal GC activity of H4 cells after uptake of helix 5 and 3×D TAT peptides. GC activity was measures every 30 minutes up to 3.5 hours. Cells were treated with DMSO or the “lysosomal inhibitor” bafilomycinA1. […] Lysosomal activity is calculated by subtracting the AUC of DMSO with the AUC of bafilomycinA1 treated samples (n=4). […] GC activity was measured from 16-74 hours and is shown in mU/mg (n=3). […]
Sequence of bovine serum albumin (BSA) (P02769 25-607): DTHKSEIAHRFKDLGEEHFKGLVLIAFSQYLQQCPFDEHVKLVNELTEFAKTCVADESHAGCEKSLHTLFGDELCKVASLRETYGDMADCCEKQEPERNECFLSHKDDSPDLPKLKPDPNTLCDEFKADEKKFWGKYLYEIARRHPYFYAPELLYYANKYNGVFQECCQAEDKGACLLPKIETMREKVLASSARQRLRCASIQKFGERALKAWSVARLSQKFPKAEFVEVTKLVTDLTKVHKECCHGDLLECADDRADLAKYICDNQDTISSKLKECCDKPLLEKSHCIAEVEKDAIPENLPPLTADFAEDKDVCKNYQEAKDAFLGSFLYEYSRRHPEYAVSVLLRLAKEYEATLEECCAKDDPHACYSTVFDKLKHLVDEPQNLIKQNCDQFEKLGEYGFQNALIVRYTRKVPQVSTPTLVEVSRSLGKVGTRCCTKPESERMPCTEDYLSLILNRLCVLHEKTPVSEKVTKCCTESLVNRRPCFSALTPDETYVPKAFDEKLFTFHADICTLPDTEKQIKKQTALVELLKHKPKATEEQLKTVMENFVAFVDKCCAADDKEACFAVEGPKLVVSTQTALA

The target in experiment [2] is T1, recombinant α-mannosidase (LAMAN) (Homo sapiens, UniProt O00754).
T1 construct: purchased Zymenex, Hillerod, DK
T1 sequence (O00754 50-1011): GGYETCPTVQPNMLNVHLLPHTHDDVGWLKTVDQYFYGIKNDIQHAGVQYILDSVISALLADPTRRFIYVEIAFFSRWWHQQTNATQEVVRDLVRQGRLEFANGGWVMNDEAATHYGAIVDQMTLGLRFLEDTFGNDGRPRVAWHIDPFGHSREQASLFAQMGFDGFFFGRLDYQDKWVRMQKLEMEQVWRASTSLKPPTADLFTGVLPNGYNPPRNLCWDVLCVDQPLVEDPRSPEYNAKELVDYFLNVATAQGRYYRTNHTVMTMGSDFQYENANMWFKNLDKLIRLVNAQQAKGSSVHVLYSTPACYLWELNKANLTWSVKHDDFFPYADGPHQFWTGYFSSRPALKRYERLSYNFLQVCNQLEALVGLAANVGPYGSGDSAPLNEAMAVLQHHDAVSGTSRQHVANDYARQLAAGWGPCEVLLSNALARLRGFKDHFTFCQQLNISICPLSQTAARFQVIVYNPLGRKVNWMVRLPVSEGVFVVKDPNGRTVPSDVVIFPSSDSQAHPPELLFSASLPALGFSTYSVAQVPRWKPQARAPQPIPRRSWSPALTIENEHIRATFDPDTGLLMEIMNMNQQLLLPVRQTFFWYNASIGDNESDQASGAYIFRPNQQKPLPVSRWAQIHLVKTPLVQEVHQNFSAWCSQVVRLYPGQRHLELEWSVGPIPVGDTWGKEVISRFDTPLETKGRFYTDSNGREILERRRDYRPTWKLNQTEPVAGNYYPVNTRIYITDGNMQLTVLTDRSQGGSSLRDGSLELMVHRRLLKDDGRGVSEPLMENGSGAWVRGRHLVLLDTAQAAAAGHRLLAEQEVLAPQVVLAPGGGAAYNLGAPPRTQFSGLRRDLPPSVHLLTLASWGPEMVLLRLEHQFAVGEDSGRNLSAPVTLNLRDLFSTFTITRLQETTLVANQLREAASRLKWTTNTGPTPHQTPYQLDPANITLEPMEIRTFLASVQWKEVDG
Briefly: recombinant LAMAN activity assay. As to conditions: 1×-10× molar excess, acid pH. It is filed as biochemical. From the text: To determine the enzymatic activity of the recombinant enzymes, lyophilized enzymes were reconstituted in the NaPi buffer described above. The lyophilized samples of wild-type GC (Cerezyme®) and the custom-made recombinant N307S mutant enzyme contain 0.01% polysorbate 80 (Tween 80) (see prescription information for Cerezyme® at the website for Cerezyme®). As indicated in our experiments, the concentration of the detergent is sufficient to support active GC enzyme and to perform the in vitro GC activity assays without adding further detergents to the reaction mix. For enzyme activity assays of recombinant proteins, 0.1-0.2 nmol of GC (Cerezyme®; N370S) and LAMAN were used in the absence or presence of 10× the molar amount of LIMP-2-derived peptides (Table 1) or LIMP-2 ectodomain (1-2 nmol) (Table 3).
All activity assays were performed at acid pH.

Experiment [3] relates to endogenous and overexpressed GC in cell lysates. As to conditions: after incubation with peptide.
Method: The artificial substrates were dissolved in sodium citrate buffer (0.2 M Na-citrate, 0.4% BSA, pH 4.6). All activity assays were performed at acid pH.
Cell lysate protein (20-200 μg) or recombinant protein (0.2 nmol GC/N370S or LAMAN) was incubated with 100 μL of 10 mM artificial absorbent substrate (4-nitrophenyl β-D-glucopyranoside or 4-nitrophenyl-N-acetyl-β-D-glucosaminide). The samples were incubated at 37° C. for 2 h to measure GC activity or for 5 h to assess LAMAN activity. The reaction was stopped by applying 500-1,000 μL of stop solution (0.4 M glycine, pH 10.4), and the absorbance was measured in a clear 96-well plate at 405 nm in a plate reader (Synergy HT; BioTek). Enzyme activities of cellular lysates were normalized to protein concentration (expressed in milliunits per milligram) and are shown relative to buffer control. Enzyme activities of recombinant proteins are shown as milliunits per milligram or are stated relative to buffer control.

Take “Biotin-Ttds-LREIIEAMLKAYQQKLFVTHTVDE [helix 5 peptide]”: in experiment [1], the “interaction with albumin (BSA)” value is given as “no interaction”. For the same substance, the “effect on enzymatic activity of recombinant LAMAN” value in experiment [2] is on record as “No effect”. For the same substance, the “enzymatic activity of endogenous and overexpressed GC in cell lysates” value in experiment [3] was “could also be increased”.
